Reference: ChEMBL document CHEMBL4270599, “Synthesis of a 3'-C-ethynyl-β-d-ribofuranose purine nucleoside library: Discovery of C7-deazapurine analogs as potent antiproliferative nucleosides” (Eur J Med Chem, 2018)

Columns and labels:
Assay type in all cases: functional
Hs-578T = assay: Growth inhibition of human Hs 578T cells assessed as cell growth at 10^-7 M incubated for 48 hrs by sulforhodamine B assay relative to control; conditions: read-out: Activity
SF-295 = assay: Growth inhibition of human SF295 cells assessed as cell growth at 10^-8 M incubated for 48 hrs by sulforhodamine B assay relative to control; conditions: SF-295, 48 h, read-out: Activity
K562 [1] = assay: Growth inhibition of human K562 cells assessed as cell growth at 10^-8 M incubated for 48 hrs by sulforhodamine B assay relative to control; conditions: K562, 48 h, read-out: Activity
NCI-H460 [2] = assay: Cytotoxicity against human NCI-H460 cells after 48 hrs by SRB assay; conditions: NCI-H460, 48 h
NCI-H460 [3] = assay: Growth inhibition of human NCI-H460 cells assessed as cell growth at 10^-8 M incubated for 48 hrs by sulforhodamine B assay relative to control; conditions: NCI-H460, 48 h, read-out: Activity
OVCAR-8 = assay: Growth inhibition of human OVCAR8 cells assessed as cell growth at 10^-7 M incubated for 48 hrs by sulforhodamine B assay relative to control; conditions: OVCAR-8, 48 h, read-out: Activity
RXF 393 = assay: Growth inhibition of human RXF393 cells assessed as cell growth at 10^-7 M incubated for 48 hrs by sulforhodamine B assay relative to control; conditions: RXF 393, 48 h, read-out: Activity
U-251 [4] = assay: Growth inhibition of human U251 cells assessed as cell growth at 10^-5 M incubated for 48 hrs by sulforhodamine B assay relative to control; conditions: U-251, 48 h, read-out: Activity
IGROV-1 [5] = assay: Growth inhibition of human IGROV1 cells assessed as cell growth at 10^-7 M incubated for 48 hrs by sulforhodamine B assay relative to control; conditions: IGROV-1, 48 h, read-out: Activity
COLO 205 = assay: Growth inhibition of human COLO205 cells assessed as cell growth at 10^-8 M incubated for 48 hrs by sulforhodamine B assay relative to control; conditions: COLO 205, 48 h, read-out: Activity
NCI-H226 = assay: Growth inhibition of human NCI-H226 cells assessed as cell growth at 10^-4 M incubated for 48 hrs by sulforhodamine B assay relative to control; conditions: NCI-H226, 48 h, read-out: Activity
K562 [6] = assay: Growth inhibition of human K562 cells assessed as cell growth at 10^-7 M incubated for 48 hrs by sulforhodamine B assay relative to control; conditions: K562, 48 h, read-out: Activity
SR = assay: Growth inhibition of human SR cells assessed as cell growth at 10^-7 M incubated for 48 hrs by sulforhodamine B assay relative to control; conditions: read-out: Activity
NCI-H23 [7] = assay: Growth inhibition of human NCI-H23 cells assessed as cell growth at 10^-7 M incubated for 48 hrs by sulforhodamine B assay relative to control; conditions: NCI-H23, 48 h, read-out: Activity
MDA-MB-468 = assay: Cytotoxicity against human MDA-MB-468 cells after 48 hrs by SRB assay; conditions: MDA-MB-468, 48 h
NCI-H23 [8] = assay: Cytotoxicity against human NCI-H23 cells after 48 hrs by SRB assay; conditions: NCI-H23, 48 h; for CC50: read-out: LC50 (the source's name)
IGROV-1 [9] = assay: Cytotoxicity against human IGROV1 cells after 48 hrs by SRB assay; conditions: IGROV-1, 48 h; for CC50: read-out: LC50 (the source's name)
MDA-MB-231 [10] = assay: Growth inhibition of human MDA-MB-231 cells assessed as cell growth at 10^-8 M incubated for 48 hrs by sulforhodamine B assay relative to control; conditions: MDA-MB-231, 48 h, read-out: Activity
MCF7 = assay: Cytotoxicity against human MCF7 cells after 48 hrs by SRB assay; conditions: MCF7, 48 h; for CC50: read-out: pLC50 (the source's name) (converted)
LOX IMVI [11] = assay: Cytotoxicity against human LOXIMVI cells after 48 hrs by SRB assay
MDA-MB-231 [12] = assay: Growth inhibition of human MDA-MB-231 cells assessed as cell growth at 10^-6 M incubated for 48 hrs by sulforhodamine B assay relative to control; conditions: MDA-MB-231, 48 h, read-out: Activity
HL-60(TB) = assay: Growth inhibition of human HL-60(TB) cells assessed as cell growth at 10^-8 M incubated for 48 hrs by sulforhodamine B assay relative to control; conditions: HL-60, 48 h, read-out: Activity
SNB-75 = assay: Growth inhibition of human SNB75 cells assessed as cell growth at 10^-7 M incubated for 48 hrs by sulforhodamine B assay relative to control; conditions: SNB-75, 48 h, read-out: Activity
SNB-19 = assay: Growth inhibition of human SNB19 cells assessed as cell growth at 10^-7 M incubated for 48 hrs by sulforhodamine B assay relative to control; conditions: SNB-19, 48 h, read-out: Activity
U-251 [13] = assay: Cytotoxicity against human U251 cells after 48 hrs by SRB assay; conditions: U-251, 48 h; for CC50: read-out: pLC50 (the source's name) (converted)
KM12 = assay: Growth inhibition of human KM12 cells assessed as cell growth at 10^-8 M incubated for 48 hrs by sulforhodamine B assay relative to control; conditions: KM12, 48 h, read-out: Activity
HT-29 [14] = assay: Cytotoxicity against human HT-29 cells after 48 hrs by SRB assay; conditions: HT-29, 48 h
HT-29 [15] = assay: Growth inhibition of human HT-29 cells assessed as cell growth at 10^-6 M incubated for 48 hrs by sulforhodamine B assay relative to control; conditions: HT-29, 48 h, read-out: Activity
SN12C = assay: Growth inhibition of human SN12C cells assessed as cell growth at 10^-5 M incubated for 48 hrs by sulforhodamine B assay relative to control; conditions: read-out: Activity
LOX IMVI [16] = assay: Growth inhibition of human LOXIMVI cells assessed as cell growth at 10^-7 M incubated for 48 hrs by sulforhodamine B assay relative to control; conditions: read-out: Activity
HOP-92 = assay: Growth inhibition of human HOP92 cells assessed as cell growth at 10^-8 M incubated for 48 hrs by sulforhodamine B assay relative to control; conditions: HOP-92, 48 h, read-out: Activity
HCT-15 = assay: Growth inhibition of human HCT15 cells assessed as cell growth at 10^-4 M incubated for 48 hrs by sulforhodamine B assay relative to control; conditions: HCT-15, 48 h, read-out: Activity
[17] = read-out: pLC50 (the source's name) (converted)
[18] = read-out: LC50 (the source's name)

Compound: C#C[C@@]1(O)[C@@H](CO)O[C@@H](n2ccc3c(N)ncnc32)[C@@H]1O
- growth at 0.1 µM (Hs-578T): 100%
- growth at 0.01 µM (SF-295): 89%
- growth at 0.01 µM (K562 [1]): 103%
- TGI (NCI-H460 [2]; read-out: TGI): 10.6 µM
- GI50 (NCI-H460 [2]; read-out: pGI50 (converted)): 0.468 µM
- CC50 (NCI-H460 [2]; [17]): > 100 µM
- TGI (NCI-H460 [2]; read-out: pTGI (converted)): 10.7 µM
- growth at 0.01 µM (NCI-H460 [3]): 89%
- growth at 0.1 µM (OVCAR-8): 106%
- growth at 0.1 µM (RXF 393): 111%
- growth at 10 µM (U-251 [4]): 2%
- growth at 0.1 µM (IGROV-1 [5]): 100%
- growth at 0.01 µM (COLO 205): 95%
- growth at 100 µM (NCI-H226): -61%
- growth at 0.1 µM (K562 [6]): 93%
- growth at 0.1 µM (SR): 96%
- growth at 0.1 µM (NCI-H23 [7]): 93%
- TGI (MDA-MB-468; read-out: TGI): 3.33 µM
- GI50 (MDA-MB-468; read-out: pGI50 (converted)): 1.29 µM
- CC50 (MDA-MB-468; [17]): 8.51 µM
- TGI (MDA-MB-468; read-out: pTGI (converted)): 3.31 µM
- CC50 (NCI-H23 [8]): > 100 µM
- TGI (NCI-H23 [8]; read-out: TGI): 4.32 µM
- GI50 (NCI-H23 [8]; read-out: pGI50 (converted)): 1.17 µM
- TGI (NCI-H23 [8]; read-out: pTGI (converted)): 4.37 µM
- CC50 (IGROV-1 [9]): > 100 µM
- TGI (IGROV-1 [9]; read-out: TGI): 5.85 µM
- GI50 (IGROV-1 [9]; read-out: pGI50 (converted)): 1.45 µM
- TGI (IGROV-1 [9]; read-out: pTGI (converted)): 5.89 µM
- growth at 0.01 µM (MDA-MB-231 [10]): 104%
- TGI (MCF7; read-out: TGI): 5.66 µM
- GI50 (MCF7; read-out: pGI50 (converted)): 0.24 µM
- CC50 (MCF7): 85.1 µM
- TGI (MCF7; read-out: pTGI (converted)): 5.62 µM
- TGI (LOX IMVI [11]; read-out: TGI): 2.05 µM
- GI50 (LOX IMVI [11]; read-out: pGI50 (converted)): 0.661 µM
- CC50 (LOX IMVI [11]; [17]): 5.13 µM
- TGI (LOX IMVI [11]; read-out: pTGI (converted)): 2.04 µM
- growth at 1 µM (MDA-MB-231 [12]): 66%
- growth at 0.01 µM (HL-60(TB)): 97%
- growth at 0.1 µM (SNB-75): 95%
- growth at 0.1 µM (SNB-19): 98%
- TGI (U-251 [13]; read-out: TGI): 11.8 µM
- GI50 (U-251 [13]; read-out: pGI50 (converted)): 2.45 µM
- CC50 (U-251 [13]): > 100 µM
- TGI (U-251 [13]; read-out: pTGI (converted)): 11.7 µM
- growth at 0.01 µM (KM12): 98%
- CC50 (HT-29 [14]; [18]): > 100 µM
- TGI (HT-29 [14]; read-out: TGI): 10 µM
- GI50 (HT-29 [14]; read-out: pGI50 (converted)): 0.977 µM
- TGI (HT-29 [14]; read-out: pTGI (converted)): 10 µM
- growth at 1 µM (HT-29 [15]): 49%
- growth at 10 µM (SN12C): -31%
- growth at 0.1 µM (LOX IMVI [16]): 99%
- growth at 0.01 µM (HOP-92): 92%
- growth at 100 µM (HCT-15): -32%

Compound: C#C[C@@]1(O)[C@@H](CO)O[C@@H](n2cc(I)c3c(N)ncnc32)[C@@H]1O
- growth at 0.1 µM (Hs-578T): 73 to 84%
- growth at 0.01 µM (SF-295): 90%
- growth at 0.01 µM (K562 [1]): 95 to 102%
- GI50 (NCI-H460 [2]; read-out: GI50): 0.0584 to 0.137 µM
- CC50 (NCI-H460 [2]; [18]): 75.4 to 100 µM
- TGI (NCI-H460 [2]; read-out: TGI): 1.67 to 2.18 µM
- growth at 0.01 µM (NCI-H460 [3]): 91 to 92%
- growth at 0.1 µM (OVCAR-8): 32 to 35%
- growth at 0.1 µM (RXF 393): 82 to 90%
- growth at 10 µM (U-251 [4]): 4%
- growth at 0.1 µM (IGROV-1 [5]): 5 to 13%
- growth at 0.01 µM (COLO 205): 79 to 98%
- growth at 100 µM (NCI-H226): 4 to 16%
- growth at 0.1 µM (K562 [6]): 35 to 41%
- growth at 0.1 µM (SR): 60 to 86%
- growth at 0.1 µM (NCI-H23 [7]): 67 to 75%
- GI50 (MDA-MB-468; read-out: GI50): 0.147 to 0.158 µM
- CC50 (MDA-MB-468; [18]): 5.51 to 5.65 µM
- TGI (MDA-MB-468; read-out: TGI): 0.421 to 0.746 µM
- GI50 (NCI-H23 [8]; read-out: GI50): 0.271 to 0.395 µM
- CC50 (NCI-H23 [8]): > 100 µM
- TGI (NCI-H23 [8]; read-out: TGI): 4.31 to 9.72 µM
- CC50 (IGROV-1 [9]): > 100 µM
- growth at 0.01 µM (MDA-MB-231 [10]): 96 to 100%
- TGI (MCF7; read-out: TGI): > 100 µM
- CC50 (MCF7): > 100 µM
- TGI (MCF7; read-out: pTGI (converted)): > 100 µM
- GI50 (LOX IMVI [11]; read-out: GI50): 0.0397 to 0.0812 µM
- CC50 (LOX IMVI [11]; [18]): > 100 µM
- TGI (LOX IMVI [11]; read-out: TGI): 0.241 to 1.22 µM
- growth at 1 µM (MDA-MB-231 [12]): 17 to 27%
- growth at 0.01 µM (HL-60(TB)): 83%
- growth at 0.1 µM (SNB-75): 81 to 83%
- growth at 0.1 µM (SNB-19): 34 to 59%
- GI50 (U-251 [13]; read-out: GI50): 0.0673 to 0.0802 µM
- TGI (U-251 [13]; read-out: TGI): 10.2 to 100 µM
- CC50 (U-251 [13]): > 100 µM
- growth at 0.01 µM (KM12): 94 to 97%
- GI50 (HT-29 [14]; read-out: GI50): 0.0142 to 0.0397 µM
- TGI (HT-29 [14]; read-out: TGI): 3.3 to 6.84 µM
- CC50 (HT-29 [14]; [17]): > 100 µM
- growth at 1 µM (HT-29 [15]): 9 to 13%
- growth at 10 µM (SN12C): 5 to 7%
- growth at 0.1 µM (LOX IMVI [16]): 27 to 46%
- growth at 0.01 µM (HOP-92): 58 to 74%
- growth at 100 µM (HCT-15): 1%
